Molecular target: T1, SIK1 (Homo sapiens, UniProt P57059)
T1 construct: purchased Thermo Fisher Scientific (Life Technologies) SelectScreen
Assay: SelectScreen LanthaScreen
Type: binding
Conditions: 1 µM
How it was run: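 SelectScreen broad panel; activity (Z'LYTE, Adapta) plus binding formats. ATP: Km app for CSF1R Z'LYTE; 10 for CAMK1 Adapta. Readout = % per kinase.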

T1 sequence (P57059 whole entry): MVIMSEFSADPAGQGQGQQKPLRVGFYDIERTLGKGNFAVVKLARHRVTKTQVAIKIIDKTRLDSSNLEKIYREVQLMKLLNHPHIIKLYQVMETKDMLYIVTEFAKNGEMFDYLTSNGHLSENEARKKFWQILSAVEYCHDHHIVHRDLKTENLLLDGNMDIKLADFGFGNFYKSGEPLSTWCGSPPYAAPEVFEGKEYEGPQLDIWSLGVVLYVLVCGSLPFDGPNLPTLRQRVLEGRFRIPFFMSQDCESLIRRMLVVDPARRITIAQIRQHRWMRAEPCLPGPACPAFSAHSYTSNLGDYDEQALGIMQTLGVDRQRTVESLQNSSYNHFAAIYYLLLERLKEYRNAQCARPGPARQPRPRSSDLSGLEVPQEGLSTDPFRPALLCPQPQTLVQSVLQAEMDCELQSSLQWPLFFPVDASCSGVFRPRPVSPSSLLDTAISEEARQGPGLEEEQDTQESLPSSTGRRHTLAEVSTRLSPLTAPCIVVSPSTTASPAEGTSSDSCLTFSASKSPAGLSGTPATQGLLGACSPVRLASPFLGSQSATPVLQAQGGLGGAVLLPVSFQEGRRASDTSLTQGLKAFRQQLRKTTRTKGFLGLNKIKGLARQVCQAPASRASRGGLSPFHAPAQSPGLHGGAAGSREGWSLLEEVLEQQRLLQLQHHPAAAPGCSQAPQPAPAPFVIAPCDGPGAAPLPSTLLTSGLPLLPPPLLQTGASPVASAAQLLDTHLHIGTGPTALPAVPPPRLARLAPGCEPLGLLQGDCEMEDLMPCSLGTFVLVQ

Structure (SMILES): CN(C(=O)CN1CCOCC1)c1ccc2sc3c(-c4cccc5c(=O)cc(N6CC7CCC(C6)O7)oc45)cccc3c2c1 [NU5455]
- % displacement: 1.3%
